We go through four molecules from patent publication US11779613B2, “Compositions comprising a bacterial strain of the genus Megasphera and uses thereof” (CJ BIOSCIENCE, INC., priority 2017, dated 2023).

Assay [1] deals with histone deacetylase. Put plainly: Histone deacetylase activity in HT-29 whole cells. Format: cell-based. The settings on record: for total HDAC activity, pure substances: different concentrations, whole HT-29 cells and HT-29 cell lysate, FIG. 16B. The protocol:
The cell line HT-29 was used because histone deacetylase is present.
Cell free supernatants of stationary phase bacterial cultures were isolated by centrifugation and filtering in a 0.22 uM filter. HT-29 cells were used 3 days' post confluence and stepped down in 1 mL DTS 24 hours prior to commencement of the experiment. The HT-29 cells were challenged with 10% cell free supernatant diluted in DTS and was is left to incubate for 48 hours. […] extraction kit and samples were snap frozen prior to HDAC activity measurement. HDAC activity was assessed fluorometrically using the Sigma Aldrich (UK) kit.
(§1) Pure cultures of bacteria were grown anaerobically in YCFA broth until they reached their stationary growth phase. Cultures were centrifuged at 5,000×g for 5 minutes and the cell-free supernatant (CFS) was filtered using a […] (Millipore, UK). 1 mL aliquots of the CFS were stored at −80° C. until use. Sodium butyrate, hexanoic and valeric acid were obtained from Sigma Aldrich (UK) and suspensions were prepared in YCFA broth.
(§2) To investigate which metabolites were responsible for the strain-induced HDAC inhibition, different concentrations of hexanoic acid, valeric acid and sodium butyrate were measured for their HDAC inhibition on whole HT-29 cells and on HT-29 cell lysate.

In assay [2] the test system is SH-SY5Y neuroblastoma cells. Put plainly: Cell viability / neuroprotection of SH-SY5Y neuroblastoma cells with or without MPP (CCK-8). The assay is classed as cell-based, human. The settings on record: compared to YCFA-MPP+ treated sample, FIG. 15. The procedure: SH-SY5Y neuroblastoma cells were purchased from ECCACC (Cat. no: 94030304) and were grown in MEM (Sigma Aldrich, cat n. M2279) supplemented with Nutrient Mixture F-12 Ham (Sigma Aldrich, cat n. N4888).
Once grown the SH-SY5Y neuroblastoma cells were plated on 96-well plate at 11,000 cells/well and incubated for 2 days. The cells were then transferred to differentiation medium (which contains FBS at 1%) and 10 uM retinoic acid (Sigma Aldrich, cat. n. R2625-100MG). Differentiation medium was replaced every other day and cells were harvested at 7 day of differentiation. Cells were pre-treated with or without MPP (Sigma Aldrich, cat. n. D048-1G) for 8 hours. Subsequently, cells were treated with 10% bacterial supernatant and incubated overnight. Cell viability was measured by using CCK-8 reagent (Sigma Aldrich, Cell Counting Kit—8, cat. n. 96992-3000TESTS-F) and read at 450 nm wavelength.
RA-differentiated SHSY-5Y cells were treated with MPP+, the active metabolite of MPTP, a chemical widely used to mimic in vitro and in vivo some of the features of PD pathology. Cell viability was measured as the rate of mitochondria respiration (FIG. 15).

Assay [3] relates to histone deacetylase. The assay can be described thus: Histone deacetylase activity in HT-29 cell lysate. The assay is classed as biochemical. The settings on record: FIG. 16A/16B. The protocol:
as §1, §2

Regarding `CCCCCC(=O)O` [hexanoic acid], the “total HDAC activity, pure substances” value in the assay with histone deacetylase [1] is “did not show significant inhibitory activity”.
As to `O=c1c(O)c(-c2ccc(O)c(O)c2)oc2cc(O)cc(O)c12` [quercetin, Quercetin], the “protection from MPP+” value in assay [2] is listed as “about 20%”.
Consider `CCCC(=O)[O-].[Na+]` [sodium butyrate, Sodium butyrate], for which the “HDAC inhibition, HT29 cell lysates” value in the assay on histone deacetylase [3] was “significant (P<0.05) inhibition”. For the same molecule, in the assay with histone deacetylase [1] (FIG. 16A/16B), the “HDAC inhibition, HT29 whole cells” value is given as “significant (P<0.05) inhibition”. The “total HDAC activity, pure substances” value in the assay on histone deacetylase [1] was “significant HDAC inhibition”.
In the case of `CCCCC(=O)O` [valeric acid], the entries for the “total HDAC activity, pure substances” value with histone deacetylase [1] and in the assay with histone deacetylase [1] (listed as Valeric acid) were “significant HDAC inhibition” and “inhibited total HDAC activity”, respectively.
